These results are taken from patent US7563788B2, “Substituted Imidazo[1,2-a]pyridines as Antibacterial Agents” (Pfizer Inc., priority 2004, dated 2009).

Structures are written as SMILES. In brackets after ≈: the same amount, converted by molar mass. A value given as a limit tells only on which side of the number the result lay.

In series [1] the test system is Neisseria gonorrhoeae, GC525 (NG-2888). Nature of the series: In-vitro antibacterial activity, microbroth dilution MIC susceptibility testing. Particulars: gonococcal broth, 20-24 hours at 35° C., lowest concentration preventing visible growth. It is filed as cell-based. Here is the method:
The in-vitro antibacterial activity of selected compounds was determined against a stain of Neisseria gonorrhoeae, GC525 (NG-2888), which is described by Rouquette-Loughlin et al, in Journal of Bacteriology, February 2003, p. 1101-1106, at p. 1103. In general, minimum inhibitory concentration (MIC) susceptibility testing followed procedures recommended by the National Committee for Clinical Laboratory Standards (NCCLS^1-2) or followed the descriptions described below:
Neisseria gonorrhoeae strains were grown on Chocolate Agar II plates (BBL—Becton Dickinson Microbiology Systems, Cockeysville, Md.) and incubated at 35° C. in a humidified 5% CO2 incubator (Forma Scientific, Marietta Ohio). For microbroth dilution MIC testing, N. gonorrhoeae were tested in gonococcal broth (GCB):
Bacterial culture identifications were confirmed by standard microbiological methods.^4 N. gonorrhoeae strains were streaked onto appropriate agar plates for visualization of purity and expected colony morphology. Gram stains were also utilized.
Bacterial stock cultures are stored as frozen suspensions at −70° C. N. gonorrhoeae cultures are suspended in inactivated Horse Serum (Colorado Serum Company, Denver, Colo.) containing 7.5% glucose prior to snap freezing in a dry ice/ethanol bath.
Frozen stock cultures were used as the initial source of organisms for performing microbroth dilution MIC testing. Stock cultures were passed on their respective growth medium at least one growth cycle (18-24 hours) prior to their use. Bacterial culture suspensions were prepared directly from Chocolate Agar II plates into 10 mL cation-adjusted Mueller-Hinton Broth (CAMHB, BBL, # BB215069). Before use, cultures were adjusted to an optical density value of […] on a Perkin-Elmer Lambda EZ150 Spectrophotometer (Wellesley, Mass.) set at a wavelength of 600 nm. Random cultures were plated for validation of actual colony counts. The adjusted cultures were diluted 400-fold (0.25 mL inoculum+100 mL GCB) into gonococcal broth producing a starting inoculum of approximately 5×10^5 cfu/mL. These cultures were inoculated into test plates (100 uL/well) using a Biomek® FX workstation (Beckman Coulter Inc., Fullerton, Calif.). The inoculated plates were placed in stacks of no more than 4 and covered with an empty plate. Plates were incubated for 20-24 hours at 35° C. in a humidified CO2 incubator.
Drug stock solutions (2 mg/mL in DMSO) were prepared on the day of testing. Drugs were weight corrected for assay content where necessary.
Microbroth dilution stock plates were prepared in two dilution series, 64-0.06 ug drug/mL and 1-0.001 ug drug/mL. For the high concentration series, 200 uL of stock solution (2 mg/mL) was added to duplicate rows of a 96-well plate. This was used as the first well in the dilution series. Serial two-fold decremental dilutions were made using a BioMek FX robot (Beckman Coulter Inc., Fullerton, Calif.) with 10 of the remaining 11 wells, each of which contained 100 uL of the appropriate solvent/diluent. Row 12 contained solvent/diluent only and served as the control. For tube one of the low concentration series, 200 uL of a 31.25 ug/mL stock was added to duplicate rows of a 96-well plate. Serial two-fold dilutions were made as described above.
Daughter plates were spotted (3.2 uL/well) from the stock plates listed above using the BioMek FX robot and were inoculated with organism (100 uL/well) as described previously.
After incubation, the degree of growth in each well was read visually with the aid of a Test Reading Mirror (Dynatech Lab 220-16, Dynex Technologies, Chantilly, Va.). 96-well test plates are read in a darkened room with a single light shining from above. The MIC is the lowest concentration of drug that prevents macroscopically visible growth under the conditions of the test. Each drug dilution series was tested in duplicate; identical results are not always obtained. If MIC values in duplicate tests differ by 1 well (two-fold), the […] value is reported. […]
In general terms: In broth dilution the organism is exposed to a series of concentrations in liquid medium.

Usually melting point stands for the temperature of the solid-liquid transition. The term MIC denotes the smallest concentration in the dilution series that meets the test's criterion for growth inhibition. Read a high MIC as a less susceptible organism. For the compound `CCOC(=O)Nc1cn2ccc(-c3cnc(N(C)C)nc3)cc2n1` [Example 2A, [7-(2-Dimethylamino-pyrimidin-5-yl)-imidazo[1,2-a]pyridin-2-yl]-carbamic Acid Ethyl Ester], the melting point is 270 to 280 °C (dec.). This compound had an MIC in series [1] of more than 64 µg/mL.

As to `CCNC(=O)Nc1cn2ccc(-c3cnc(N(C)C)nc3)cc2n1` [Example 2B, 1-[7-(2-Dimethylamino-pyrimidin-5-yl)-imidazo[1,2-a]pyridin-2-yl]-3-ethyl-urea], the melting point is 259 to 263 °C (dec.). The compound further registered an MIC in series [1] of 16 µg/mL (≈ 49.2 µM). With `CCOC(=O)Nc1cn2ccc(-c3ccc(OC)nc3)cc2n1` [Example 3A, [7-(6-Methoxy-pyridin-3-yl)-imidazo[1,2-a]pyridin-2-yl]-carbamic Acid Ethyl Ester], the melting point is 273 to 279 °C (dec.). The MIC in series [1] is more than 64 µg/mL. For `CCNC(=O)Nc1cn2ccc(-c3ccc(OC)nc3)cc2n1` [Example 3B, 1-Ethyl-3-[7-(6-methoxy-pyridin-3-yl)-imidazo[1,2-a]pyridin-2-yl]-urea], the melting point is 222 to 225 °C (dec.). This compound yielded an MIC in series [1] of 16 µg/mL (≈ 51.4 µM). Regarding `CCNC(=O)Nc1cn2ccc(-c3cnc(OC)nc3)cc2n1` [Example 4, 1-Ethyl-3-[7-(2-methoxy-pyrimidin-5-yl)-imidazo[1,2-a]pyridin-2-yl]-urea], the melting point was more than 300 °C. For the same compound, inhibition of growth in series [1] (MIC) required 12.7 µg/mL (≈ 40.7 µM). As to `CCNC(=O)Nc1cn2ccc(-c3ccn[nH]3)cc2n1` [Example 38, 1-Ethyl-3-[7-(2H-pyrazol-3-yl)-imidazo[1,2-a]pyridin-2-yl]-urea], the melting point was 292 to 295 °C (dec.). Also, 32 µg/mL (≈ 118 µM) was the least that counted as inhibitory in series [1] (MIC). In the case of `CCNC(=O)Nc1cn2ccc(-c3csnn3)cc2n1` [Example 39, 1-Ethyl-3-(7-[1,2,3]thiadiazol-4-yl-imidazo[1,2-a]pyridin-2-yl)-urea], in series [1], the lowest concentration to inhibit growth (MIC) was 16 µg/mL (≈ 55.5 µM).

In series [1], `CCNC(=O)Nc1cn2ccc(-c3noc(C(C)C)n3)cc2n1` [Example 40, 1-Ethyl-3-[7-(5-isopropyl-[1,2,4]oxadiazol-3-yl)-imidazo[1,2-a]pyridin-2-yl]-urea] came in with a minimum inhibitory concentration (MIC) of more than 64 µg/mL.

In series [1], `CCNC(=O)Nc1cn2ccc(-c3noc(=O)[nH]3)cc2n1` [Example 41, 1-Ethyl-3-[7-(5-oxo-4,5-dihydro-[1,2,4]oxadiazol-3-yl)-imidazo[1,2-a]pyridin-2-yl]-urea] gave an MIC of more than 64 µg/mL.

Compound `CCNC(=O)Nc1cn2ccc(-c3ccnc(N)c3)cc2n1` [Example 42, 1-[7-(2-Amino-pyridin-4-yl)-imidazo[1,2-a]pyridin-2-yl]-3-ethyl-urea] came in with an MIC in series [1] of 64 µg/mL (≈ 216 µM). On to `CCNC(=O)Nc1cn2ccc(C(=O)N3CCOCC3)cc2n1` [Example 43, 1-Ethyl-3-[7-(morpholine-4-carbonyl)-imidazo[1,2-a]pyridin-2-yl]-urea], for which the MIC in series [1] is more than 64 µg/mL. Take `CCNC(=O)Nc1cn2ccc(-c3ccnc(OC)c3)cc2n1` [Example 44, 1-Ethyl-3-[7-(2-methoxy-pyridin-4-yl)-imidazo[1,2-a]pyridin-2-yl]-urea]: in series [1], the MIC turned out to be 16 µg/mL (≈ 51.4 µM). Take `CCNC(=O)Nc1cn2c(-c3nc(C)no3)cc(-c3cccnc3)cc2n1` [Example 45, 1-Ethyl-3-[5-(3-methyl-[1,2,4]oxadiazol-5-yl)-7-pyridin-3-yl-imidazo[1,2-a]pyridin-2-yl]-urea]: the MIC in series [1] was determined as 0.25 µg/mL (≈ 0.688 µM). This MIC lies about 64-fold lower than the previous one.

Take `CCNC(=O)Nc1cn2ccc(-c3ccc(F)nc3)cc2n1` [Example 46, 1-Ethyl-3-[7-(6-fluoro-pyridin-3-yl)-imidazo[1,2-a]pyridin-2-yl]-urea]: in series [1], inhibition of growth (MIC) required 16 µg/mL (≈ 53.5 µM).

Take `CCNC(=O)Nc1cn2c(C(=O)NCC)cc(-c3cnc(N(C)C)nc3)cc2n1` [Example 50, 7-(2-Dimethylamino-pyrimidin-5-yl)-2-(3-ethyl-ureido)-imidazo[1,2-a]pyridine-5-carboxylic Acid Ethylamide]: in series [1], the MIC was 2 µg/mL (≈ 5.04 µM). `CCNC(=O)Nc1cn2c(-c3ncccn3)cc(-c3cnc(N(C)C)nc3)cc2n1` [Example 51, 1-[7-(2-Dimethylamino-pyrimidin-5-yl)-5-pyrimidin-2-yl-imidazo[1,2-a]pyridin-2-yl]-3-ethyl-urea]: the MIC in series [1] is 0.13 µg/mL (≈ 0.322 µM). Against the preceding compound, the MIC is about 15-fold lower.
